Measurements reported in patent publication US20240295566A1, “METHOD FOR DIAGNOSING AND TREATING METABOLIC DISORDERS” (Centre for Chinese Herbal Medicine Drug Development Limited, priority 2023, published 2024).
One block for each molecule: values may come before it.

Key:
ERK1/2 phosphorylation [1] = assay: Western blot of ERK activation in WAT, liver and skeletal muscle lysates from mice; assay type: in vivo, mouse; conditions: for tryptamine-induced ERK phosphorylation in tissues: tryptamine 10 mg/kg plus inhibitor (U0126 20 mg/kg or EPPTB 10 mg/kg), WAT and liver lysates
Description: (§1) Frozen tissues and harvested cells were lysed in RIPA buffer with a protease inhibitor cocktail. For western blotting, the cell lysates and tissue lysates were centrifuged at 15,000 rpm for 15 min at 4° C. The supernatant was mixed with 5× loading buffer and heated at 98° C. on a dry bath for 10 min. The target proteins were then detected in the samples as per manufacturer instructions. The blots were incubated with HRP-linked anti-rabbit IgG or anti-mouse IgG and reacted with enhanced chemiluminescence. The quantification of protein bands from western blots was analyzed using Image J.

ERK1/2 phosphorylation [2] = assay: Western blot of ERK activation in 3T3-L1 cells; assay type: cell-based; conditions: for ERK phosphorylation induced by tryptamine and phenethylamine: tryptamine or phenethylamine 25 μM, pre-treatment with inhibitor 20 μM; for ERK1/2 phosphorylation: 25 μM
Description: (§2) 3T3-L1 adipocytes (ATCC CL-173) were cultured and maintained in DMEM with 10% (v/v) FBS. For the glucose uptake assay, 3T3-L1 cells were serum- and glucose-starved for 3 hours and then incubated with glucose, FBS, insulin and tryptamine for 30 min as indicated. To assess the effect of tryptamine on insulin signaling, 3T3-L1 cells were pre-treated with or without tryptamine, ERK inhibitor or TAAR1 antagonist EPPTB, and then treated with insulin at the indicated concentration. The effect of IAA on insulin signaling was evaluated by treating 3T3-L1 cells with or without IAA followed by insulin for the indicated times. Tryptamine, U0126 and EPPTB were dissolved in DMSO at 100 mM as a stock solution. For cAMP measurements, 3T3-L1 cells were pre-treated with or without EPPTB for 60 min and then treated with tryptamine for the indicated times.
as §1

[3] = system: insulin-induced AKT phosphorylation; assay: Western blot of insulin signaling (AKT phosphorylation) in 3T3-L1 cells; assay type: cell-based; conditions: insulin 20 nM; for inhibitory effects of tryptamine and phenethylamine on insulin-stimulated AKT phosphorylation / insulin-induced AKT phosphorylation: 3T3-L1 cells; for inhibitory effects of tryptamine and phenethylamine on insulin-stimulated AKT phosphorylation: tryptamine or phenethylamine 25 μM, inhibitor 20 μM; for insulin-induced AKT phosphorylation: precursors and metabolites at 100 μM; for insulin signaling: 3T3-L1 adipocytes, 25 μM
Description: as §2, with “For” for “3T3-L1 adipocytes (ATCC CL-173) were cultured and maintained in DMEM with 10% (v/v) FBS. For”
as §1

[4] = system: insulin-induced Akt phosphorylation; assay: Western blot of insulin-stimulated AKT phosphorylation in WAT, liver and skeletal muscle lysates from mice; assay type: in vivo, mouse; conditions: insulin 1 U/kg; for inhibitory effects of tryptamine on insulin-stimulated AKT phosphorylation in tissues: tryptamine 10 mg/kg plus inhibitor (U0126 20 mg/kg or EPPTB 10 mg/kg), WAT and liver lysates; for insulin-induced Akt phosphorylation in major metabolic tissues: WAT, liver, skeletal muscle, tryptamine 10 mg/kg or phenethylamine 5 mg/kg i.p.
Description: as §1

[5] = Insulin tolerance test (ITT) in mice; assay type: in vivo, mouse; conditions: for insulin sensitivity in control mice (ITT): control mice without tryptamine, inhibitor alone; for tryptamine-induced insulin resistance (ITT): tryptamine (10 mg/kg)-treated mice plus inhibitor i.p. (U0126 20 mg/kg, PD98059 10 mg/kg, EPPTB 10 mg/kg); for insulin sensitivity (ITT): normal mice, substance given alone (tryptamine 0.4, 2, 10 mg/kg; phenethylamine 1, 2, 5 mg/kg i.p.)
Description: (§3) For the oral glucose tolerance test (OGTT), mice were fasted for 12 hours (overnight) and administered with tryptamine, ERK inhibitors, TAAR1 antagonist or IAA at indicated dosages. After 30 min, mice were given glucose at a dosage of 2 g/kg. Blood samples were collected from the tail vein for glucose measurement using Accu-Chek glucose meters at 0, 15, 30, 60, 90 and 120 min after the glucose challenge. For the insulin tolerance test (ITT), mice were fasted for 4 hours and administered with tryptamine, ERK inhibitors or a TAAR1 antagonist at indicated dosages. After 30 min, insulin (1 U/kg) was injected intraperitoneally into the mice. Blood glucose levels were measured as per OGTT. For the measurement of serum insulin and TG, serum was collected 120 min after the mice were treated with tryptamine.

[6] = Oral glucose tolerance test (OGTT) in mice; assay type: in vivo, mouse; conditions: for glucose tolerance in control mice (OGTT): control mice without tryptamine, inhibitor alone; for tryptamine-induced glucose intolerance (OGTT): tryptamine (10 mg/kg)-treated mice plus inhibitor i.p. (U0126 20 mg/kg, PD98059 10 mg/kg, EPPTB 10 mg/kg); for glucose tolerance (OGTT): normal mice, substance given alone (tryptamine 0.4, 2, 10 mg/kg; phenethylamine 1, 2, 5 mg/kg i.p.)
Description: as §3

[7] = mouse, in vivo, 15 min
Description: (§4) Tryptamine at a dosage of 5 mg/kg (dissolved in 0.5% CMC-Na) was orally administered to mice. After 15 min, mice were euthanized by isoflurane and sacrificed by cervical dislocation. Serum, liver, skeletal muscle and WAT were collected and stored at −80° C. until analysis. About 80 mg of biological tissues were extracted with a 20× volume of 70% methanol (m/v) and then homogenized with steel beads. The samples were then centrifuged at 14,000 rpm at 4° C. for 15 min. About 200 μL of the supernatant was transferred to new tubes for LC-MS analysis.

Serum TG level in mice = assay type: in vivo, mouse; conditions: normal mice, i.p.
Description: as §3

[8] = Serum insulin level in monkeys; assay type: in vivo, Macaca fascicularis; conditions: normal monkeys, single dose 10 mg/kg via oral gavage
Description: The first crab-eating macaques (Macaca fascicularis) metabolomics study is performed with ethics approval (No. YMB1704) by Yunnan Yinmore Biotechnology company (Kunming, China). The diagnosis of diabetes for monkeys was based on published criteria. Specifically, age-matched (10-23 years old) monkeys were categorized as normal (Define as FBG<75 mg/dL and Hb1Ac<3.5%), pre-diabetes (FBG 80-130 mg/dL and Hb1Ac 4.0%-6.0%) and diabetes (FBG>130 mg/dL and Hb1Ac>6.0%) (n=26 for each group). Biological samples including serum and feces were collected and stored at −80° C. until analysis. The second crab-eating macaques (n=5) intervention study is performed with ethics approval (No. HZ2021047) by Huazhen Biosciences company (Guangzhou, China). Biochemical parameters including OGTT and serum insulin level were measured before and after tryptamine treatment. No crab-eating macaques were treated with anti-diabetic medication during these studies.
To understand the role of tryptamine and phenethylamine in the pathophysiology of insulin resistance, tryptamine and phenethylamine were administered to normal mice within the pathophysiological range detected in the fecal samples of T2D subjects. […]

[9] = Tissue distribution of tryptamine; conditions: mice, oral gavage of tryptamine 5 mg/kg, within 15 min
Description: as §4

[10] = system: insulin signaling-related proteins; assay: Phospho-proteomics study of mouse tissue; assay type: in vivo; conditions: mice, insulin-sensitive tissues (WAT), tryptamine treatment
Description: Mice were fasted for 4 hours and orally administered with tryptamine or vehicle. The WAT tissues were collected for the phosphoproteomics study. Mice tissue samples used for the TMT-labeled phosphoproteomics study were prepared as previously reported. An Easy nLC system (Thermo Fisher Scientific) with an Acclaim PepMap RSLC column (50 μm×15 cm) was used to separate the TMT-labelled peptides. The mobile phase used in LC-MS-Orbitrap was A: water with 0.1% formic acid and B: 80% acetonitrile, 20% water with 0.1% formic acid. The elution gradient was set as 0-5 min in 0-6% buffer B, 5-45 min in 6-28% buffer B, 45-50 min in 28%-38% buffer B, 50-55 min 38-100% buffer B and maintained during […] in 100% buffer B. The obtained MS/MS spectra were processed by Proteome Discoverer (Thermo Fisher Scientific) and searched using MASCOT engine 2.6. All protein sequences were aligned to the Mus musculus database downloaded from UniProt (http://www.uniprot.org). The proteins with a fold change>1.2 or <0.8 and a p-value<0.05 were considered as differentially expressed proteins.

[11] = Intravenous glucose tolerance test (IVGTT) in monkeys; assay type: in vivo, Macaca fascicularis; conditions: normal monkeys, single dose 10 mg/kg via oral gavage
3T3-L1 adipocytes = assay: Glucose uptake assay in 3T3-L1 cells; assay type: cell-based; conditions: 5, 10 and 25 μM
Description: as §2

[12] = antibiotics-treated mice colonized with R. gnavus ATCC 29149, EPPTB 10 mg/kg i.p.

SMILES: CCOc1cccc(NC(=O)c2ccc(N3CCCC3)c(C(F)(F)F)c2)c1 [EPPTB, N-(3-ethoxy-phenyl)-4-pyrrolidin-1-yl-3-trifluoromethyl-benzamide]
tryptamine-induced ERK phosphorylation in tissues (ERK1/2 phosphorylation [1]): downregulated | ERK phosphorylation induced by tryptamine and phenethylamine (ERK1/2 phosphorylation [2]): significantly downregulated | inhibitory effects of tryptamine and phenethylamine on insulin-stimulated AKT phosphorylation [3]: reversed the inhibitory effects | inhibitory effects of tryptamine on insulin-stimulated AKT phosphorylation in tissues [4]: abolished the inhibitory effects | R. gnavus-induced lower insulin sensitivity (ITT) [5, 12]: partially abrogated | insulin sensitivity in control mice (ITT) [5]: did not affect | tryptamine-induced insulin resistance (ITT) [5]: significantly reduced | R. gnavus-induced impaired glucose tolerance (OGTT) [6, 12]: partially abrogated | glucose tolerance in control mice (OGTT) [6]: did not affect | tryptamine-induced glucose intolerance (OGTT) [6]: significantly reduced

SMILES: COc1cccc(-c2cc(=O)c3ccccc3o2)c1N [PD98059]
insulin sensitivity in control mice (ITT) [5]: negligible effects | tryptamine-induced insulin resistance (ITT) [5]: significantly improved | glucose tolerance in control mice (OGTT) [6]: negligible effects | tryptamine-induced glucose intolerance (OGTT) [6]: significantly improved

SMILES: N#CC(=C(/N)Sc1ccccc1N)/C(C#N)=C(\N)Sc1ccccc1N [U0126]
tryptamine-induced ERK phosphorylation in tissues (ERK1/2 phosphorylation [1]): significantly downregulated | ERK phosphorylation induced by tryptamine and phenethylamine (ERK1/2 phosphorylation [2]): blocked | inhibitory effects of tryptamine and phenethylamine on insulin-stimulated AKT phosphorylation [3]: significantly suppressed the inhibitory effects | inhibitory effects of tryptamine on insulin-stimulated AKT phosphorylation in tissues [4]: abolished the inhibitory effects | insulin sensitivity in control mice (ITT) [5]: negligible effects | tryptamine-induced insulin resistance (ITT) [5]: significantly improved | glucose tolerance in control mice (OGTT) [6]: negligible effects | tryptamine-induced glucose intolerance (OGTT) [6]: significantly improved

IAA concentration relative to that of tryptamine in serum [7]: 40-100 fold
SMILES: O=C(O)Cc1c[nH]c2ccccc12 [indole-3-acetic acid]
insulin-induced AKT phosphorylation [3]: did not alter | insulin sensitivity (ITT) [5]: did not impair | glucose tolerance (OGTT) [6]: did not impair

SMILES: NCCc1ccccc1 [phenethylamine]
ERK1/2 phosphorylation (ERK1/2 phosphorylation [2]): induced ERK1/2 phosphorylation in a time-dependent manner | insulin signaling [3]: inhibited insulin signaling in a time-dependent manner | insulin-induced Akt phosphorylation in major metabolic tissues [4]: significantly suppressed | insulin sensitivity (ITT) [5]: remarkably inhibitory effects | serum TG levels (Serum TG level in mice): significant elevation | glucose tolerance (OGTT) [6]: remarkably inhibitory effects

SMILES: O=C(O)Cc1ccccc1 [phenylacetic acid]
insulin-induced AKT phosphorylation [3]: did not alter

SMILES: N[C@@H](Cc1ccccc1)C(=O)O [phenylalanine]
insulin-induced AKT phosphorylation [3]: did not alter

SMILES: NCCc1c[nH]c2ccccc12 [tryptamine]
ERK1/2 phosphorylation in insulin-sensitive tissues (ERK1/2 phosphorylation [1]; tryptamine 10 mg/kg i.p., WAT, liver, skeletal muscle): upregulated | ERK1/2 phosphorylation (ERK1/2 phosphorylation [2]): induced ERK1/2 phosphorylation in a time-dependent manner | serum insulin levels [8]: significant elevation | insulin signaling [3]: inhibited insulin signaling in a time-dependent manner | insulin-induced Akt phosphorylation in major metabolic tissues [4]: significantly suppressed | insulin sensitivity (ITT) [5]: remarkably inhibitory effects | metabolite indole-3-acetic acid (IAA) levels in serum and insulin-sensitive tissues [9]: significantly increased | tryptamine levels in serum and insulin-sensitive tissues ([9]; serum, WAT, liver, skeletal muscle): significantly increased | insulin signaling-related phospho-proteins (HSL, ERK, SH3D5) [10]: upregulated | serum TG levels (Serum TG level in mice): significant elevation | blood glucose levels in the glucose challenge (IVGTT) [11]: higher blood glucose levels | basal glucose uptake (3T3-L1 adipocytes): inhibited basal glucose uptake in a dose-dependent manner | glucose tolerance (OGTT) [6]: remarkably inhibitory effects

SMILES: N[C@@H](Cc1c[nH]c2ccccc12)C(=O)O [tryptophan]
insulin-induced AKT phosphorylation [3]: did not alter
